Laboratory results taken from US20240252488A1 (KOREA RESEARCH INSTITUTE OF CHEMICAL TECHNOLOGY, priority 2020, published 2024).

Columns and labels:
[1] = target: T1, MLKL (Homo sapiens, UniProt Q8NB16); assay: MLKL degradation assay in HepG2 cell line (western blot); format: cell-based; set-up: endogenous in cells; host or cells: HepG2 or HaCaT; conditions: cell line not given; for Degradation assay (Degradation %) 1 μM: compound 1 μM; for Degradation assay (Degradation %) 10 μM: compound 10 μM
T1 sequence (Q8NB16 1-471): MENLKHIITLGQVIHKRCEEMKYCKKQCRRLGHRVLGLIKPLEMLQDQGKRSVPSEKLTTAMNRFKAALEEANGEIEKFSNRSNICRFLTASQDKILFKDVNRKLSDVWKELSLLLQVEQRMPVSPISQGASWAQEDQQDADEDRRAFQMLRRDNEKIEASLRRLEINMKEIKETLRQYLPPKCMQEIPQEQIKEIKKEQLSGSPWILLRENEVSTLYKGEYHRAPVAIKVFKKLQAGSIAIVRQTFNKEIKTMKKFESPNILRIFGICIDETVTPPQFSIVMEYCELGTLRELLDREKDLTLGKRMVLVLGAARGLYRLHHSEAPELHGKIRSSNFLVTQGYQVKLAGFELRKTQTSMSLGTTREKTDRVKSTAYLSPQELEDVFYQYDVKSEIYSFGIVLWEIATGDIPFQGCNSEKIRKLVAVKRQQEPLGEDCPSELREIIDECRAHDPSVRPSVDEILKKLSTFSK
How it was run: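 After treating HepG2 with test compounds (final 1 μM or 10 μM) for 20-24 h, we lysed cells, equalized protein by BCA and probed MLKL by overnight primary antibody at 4 °C followed by chemiluminescent detection.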

[2] = test system: FADD−/− Jurkat cells; assay: Necroptosis inhibition assay, TNF-α-induced necroptosis (CellTiter-Glo 2.0); format: cell-based, human; conditions: TNF-α 15 ng/mL; for Necroptosis inhibition assay (Rescue %) 1 μM: compound 1 μM; for Necroptosis inhibition assay (Rescue %) 10 μM: compound 10 μM; for Necroptosis inhibition assay (Rescue %) 1.1 μM: compound 1.1 µM
How it was run: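 Necroptosis was triggered by TNF-α at 15 ng/mL final following 30 minutes of compound exposure (0.1, 1 or 10 μM final). Incubation ran 20 to 24 hours at 37° C under 5% CO2; cell ATP was then quantified by luminescence.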

[3] = target: T1, MLKL; assay: Measurement of binding affinity with MLKL receptor (competitive binding assay, Kd); set-up: made in house; host or cells: HEK 293 cell line (T7 phage in E. coli BL21-derived host is also described)
How it was run: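 Competition binding of kinase tagged with DNA for qPCR detection, expressed in HEK 293 cells, against immobilized ligand on beads. Final DMSO 0.9%. Kd derived from kinase amount in eluates measured by qPCR.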

| Compound | Degradation assay (Degradation %) 1 μM [1] | Degradation assay (Degradation %) 10 μM [1] | Kd [3] | Necroptosis inhibition assay (Rescue %) 1 μM ([2]; FADD−/− Jurkat cells) | Necroptosis inhibition assay (Rescue %) 10 μM ([2]; FADD−/− Jurkat cells) | Necroptosis inhibition assay (Rescue %) 1.1 μM [2] | Necroptosis inhibition assay (Rescue %) 10 μM [2] | Necroptosis inhibition assay (Rescue %) 1 μM [2] |
| --- | --- | --- | --- | --- | --- | --- | --- | --- |
| Nc1ncc(-c2cnn(C3CCN(C(=O)CC4CCN(C(=O)C5CCN(c6ccc7nnn(C8CCC(=O)NC8=O)c(=O)c7c6)CC5)CC4)CC3)c2)nc1C(=O)O[C@@H](C(=O)Nc1ccc(F)cc1)c1ccccc1 (stereo partly drawn) [TDH-407, (R)-2-((4-fluorophenyl)amino)-2-oxo-1-phenylethyl 3-amino-6-(1-(1-(2-(1-(1-(3-(2,6-dioxopiperidin-3-yl)-4-oxo-3,4-dihydrobenzo[d][1,2,3]triazin-6-yl)piperidine-4-carbonyl)piperidin-4-yl)acetyl)piperidin-4-yl)-1H-pyrazol-4-yl)pyrazine-2-carboxylate] | 83.70% | 79.77% | 7.5 nM | 52.02% | 42.95% | – | – | – |
| Nc1ncc(-c2cnn(C3CCN(CC4CCN(C(=O)C5CN(c6cccc7c6C(=O)N(C6CCC(=O)NC6=O)C7=O)C5)CC4)CC3)c2)nc1C(=O)O[C@@H](C(=O)Nc1ccc(F)cc1)c1ccccc1 (stereo partly drawn) [TDH-138, (R)-2-((4-fluorophenyl)amino)-2-oxo-1-phenylethyl 3-amino-6-(1-(1-((1-(1-(2-(2,6-dioxopiperidin-3-yl)-1,3-dioxoisoindolin-4-yl)azetidine-3-carbonyl)piperidin-4-yl)methyl)piperidin-4-yl)-1H-pyrazol-4-yl)pyrazine-2-carboxylate] | 40.46% | 25.69% | 4.2 nM | – | – | – | 60.57% | 70.53% |
| Nc1ncc(-c2cnn(C3CCN(CCCCCCCCCCNC(=O)C4CCN(c5ccc6nnn(C7CCC(=O)NC7=O)c(=O)c6c5)CC4)CC3)c2)nc1C(=O)O[C@@H](C(=O)Nc1ccc(F)cc1)c1ccccc1 (stereo partly drawn) [TDH-177, (R)-2-((4-fluorophenyl)amino)-2-oxo-1-phenylethyl 3-amino-6-(1-(1-(10-(1-(3-(2,6-dioxopiperidin-3-yl)-4-oxo-3,4-dihydrobenzo[d][1,2,3]triazin-6-yl)piperidine-4-carboxamido)decyl)piperidin-4-yl)-1H-pyrazol-4-yl)pyrazine-2-carboxylate] | 36.03% | 75.8% | 84 nM | – | – | – | 48.7% | 41.3% |
| Nc1ncc(-c2cnn(C3CCN(CCOCCNc4cccc5c4C(=O)N(C4CCC(=O)NC4=O)C5=O)CC3)c2)nc1C(=O)O[C@@H](C(=O)Nc1ccc(F)cc1)c1ccccc1 (stereo partly drawn) [TDH-130, (R)-2-((4-fluorophenyl)amino)-2-oxo-1-phenylethyl 3-amino-6-(1-(1-(2-(2-((2-(2,6-dioxopiperidin-3-yl)-1,3-dioxoisoindolin-4-yl)amino)ethoxy)ethyl)piperidin-4-yl)-1H-pyrazol-4-yl)pyrazine-2-carboxylate] | 58.3% | 24.87% | 11 nM | – | – | – | 27.69% | 40.74% |

Compounds with a lower Kd [3], results first:

| Degradation assay (Degradation %) 1 μM [1] | Degradation assay (Degradation %) 10 μM [1] | Kd [3] | Compound | Necroptosis inhibition assay (Rescue %) 1 μM ([2]; FADD−/− Jurkat cells) | Necroptosis inhibition assay (Rescue %) 10 μM ([2]; FADD−/− Jurkat cells) | Necroptosis inhibition assay (Rescue %) 1.1 μM [2] | Necroptosis inhibition assay (Rescue %) 10 μM [2] | Necroptosis inhibition assay (Rescue %) 1 μM [2] |
| --- | --- | --- | --- | --- | --- | --- | --- | --- |
| 61.62% | 63.17% | 2.6 nM | Nc1ncc(-c2cnn(C3CCN(CCOC4CCN(C(=O)COc5ccc6c(c5)C(=O)N(C5CCC(=O)NC5=O)C6=O)CC4)CC3)c2)nc1C(=O)O[C@@H](C(=O)Nc1ccc(F)cc1)c1ccccc1 (stereo partly drawn) [TDH-332, (R)-2-((4-fluorophenyl)amino)-2-oxo-1-phenylethyl 3-amino-6-(1-(1-(2-((1-(2-((2-(2,6-dioxopiperidin-3-yl)-1,3-dioxoisoindolin-5-yl)oxy)acetyl)piperidin-4-yl)oxy)ethyl)piperidin-4-yl)-1H-pyrazol-4-yl)pyrazine-2-carboxylate] | – | – | 68.62 (1.1 µM) % | 37.17% | – |
| 80.66% | 88.82% | 0.98 nM | Nc1ncc(-c2cnn(C3CCN(CCCN4CCN(C(=O)COc5ccc6c(c5)C(=O)N(C5CCC(=O)NC5=O)C6=O)CC4)CC3)c2)nc1C(=O)O[C@@H](C(=O)Nc1ccc(F)cc1)c1ccccc1Cl (stereo partly drawn) [TDH-494, (R)-1-(2-chlorophenyl)-2-((4-fluorophenyl)amino)-2-oxoethyl 3-amino-6-(1-(1-(3-(4-(2-((2-(2,6-dioxopiperidin-3-yl)-1,3-dioxoisoindolin-5-yl)oxy)acetyl)piperazin-1-yl)propyl)piperidin-4-yl)-1H-pyrazol-4-yl)pyrazine-2-carboxylate] | 43.07% | −7.06% | – | – | – |
| 75.98% | 83.61% | 0.82 nM | Nc1ncc(-c2cnn(C3CCN(CCC4CCN(C(=O)CNc5ccc6nnn(C7CCC(=O)NC7=O)c(=O)c6c5)CC4)CC3)c2)nc1C(=O)O[C@@H](C(=O)Nc1ccc(F)cc1)c1ccccc1 (stereo partly drawn) [TDH-334, (R)-2-((4-fluorophenyl)amino)-2-oxo-1-phenylethyl 3-amino-6-(1-(1-(2-(1-((3-(2,6-dioxopiperidin-3-yl)-4-oxo-3,4-dihydrobenzo[d][1,2,3]triazin-6-yl)glycyl)piperidin-4-yl)ethyl)piperidin-4-yl)-1H-pyrazol-4-yl)pyrazine-2-carboxylate] | – | – | 86.58 (1.1 µM) % | 50.45% | – |
| 70.67% | 89.04% | 0.68 nM | Nc1ncc(-c2cnn(C3CCN(CC4CCN(CC5CCN(C(=O)c6ccc(C(=O)NC7CCC(=O)NC7=O)cc6)CC5)CC4)CC3)c2)nc1C(=O)O[C@@H](C(=O)Nc1ccc(F)cc1)c1ccccc1 (stereo partly drawn) [TDH-539, (R)-2-((4-fluorophenyl)amino)-2-oxo-1-phenylethyl 3-amino-6-(1-(1-((1-((1-(4-((2,6-dioxopiperidin-3-yl)carbamoyl)benzoyl)piperidin-4-yl)methyl)piperidin-4-yl)methyl)piperidin-4-yl)-1H-pyrazol-4-yl)pyrazine-2-carboxylate] | 46.99% | 30.33% | – | – | – |
| 79.77% | 84.86% | 0.47 nM | Nc1ncc(-c2cnn(C3CCN(CCC4CCN(CC5CCN(C(=O)Cc6cccc(NC7=CC(=O)N(C8CCC(=O)NC8=O)C7=O)c6)CC5)CC4)CC3)c2)nc1C(=O)O[C@@H](C(=O)Nc1ccc(F)cc1)c1ccccc1 (stereo partly drawn) [TDH-510, (R)-2-((4-fluorophenyl)amino)-2-oxo-1-phenylethyl 3-amino-6-(1-(1-(2-(1-((1-(2-(3-((1-(2,6-dioxopiperidin-3-yl)-2,5-dioxo-2,5-dihydro-1H-pyrrol-3-yl)amino)phenyl)acetyl)piperidin-4-yl)methyl)piperidin-4-yl)ethyl)piperidin-4-yl)-1H-pyrazol-4-yl)pyrazine-2-carboxylate] | 28.63% | −91.81% | – | – | – |
